Experimental data as given in patent US11178870B2 (priority 2017, dated 2021).

Key:
Format in all cases: in vivo
Phytophthora infestans = experiment: whole plant or invertebrate; settings: in Solanum lycopersicum, read-out: Test F control value
[1] = test system: Blumeria graminis f. sp. hordei; experiment: Test Example D: Powdery mildew on barley; settings: Powdery mildew on barley, read-out: Test D control value
Magnaporthe grisea = experiment: whole plant or invertebrate; settings: Pyricularia oryzae, in Oryza sativa, read-out: Test A control value
Plasmopara viticola = experiment: Test Example G: Downy mildew on vine; settings: Downy mildew on vine, 250 ppm sprayed, 2.5 ml/pot, 7 to 10 days after inoculation, read-out: Test G control value
Alternaia brassicicola = experiment: Test Example C: Alternaria sooty spot on cabbage; settings: Brassica oleracea; Alternaria sooty spot on cabbage; read-out: Test C control value
Puccinia recondita = experiment: Test Example E: Brown rust on wheat; settings: Brown rust on wheat, read-out: Test E control value
Botrytis cinerea = experiment: Test Example B: Gray mold on tomato; settings: Gray mold on tomato, read-out: Test B control value

| SMILES | pest or weed control at 250 µg/mL (Phytophthora infestans) [%] | pest or weed control at 250 µg/mL [1] [%] | pest or weed control at 250 µg/mL (Magnaporthe grisea) [%] | pest or weed control at 250 ppm (Plasmopara viticola) [%] | pest or weed control at 250 µg/mL (Alternaia brassicicola) [%] | pest or weed control at 250 µg/mL (Puccinia recondita) [%] | pest or weed control at 250 µg/mL (Botrytis cinerea) [%] |
| --- | --- | --- | --- | --- | --- | --- | --- |
| CCn1c(-c2c(F)cc(F)cc2F)c(-c2nn(C)cc2Br)cc(Cl)c1=O [compound 24, 5-(4-bromo-1-methyl-1H-pyrazol-3-yl)-3-chloro-1-ethyl-6-(2,4,6-trifluorophenyl)pyridin-2(1H)-one] | < 50 | > 50 | > 50 | > 50 | > 50 | > 50 | > 50 |
| CCN1C(=O)CCC(n2cccn2)=C1c1c(F)cc(F)cc1F [compound 25, 1-ethyl-5-(1H-pyrazol-1-yl)-6-(2,4,6-trifluorophenyl)-3,4-dihydropyridin-2(1H)-one] | < 50 | > 50 | < 50 | < 50 | > 50 | < 50 | < 50 |
| CCn1c(-c2c(F)cc(F)cc2F)c(-n2cccn2)ccc1=O [compound 26, 1-ethyl-5-(1H-pyrazol-1-yl)-6-(2,4,6-trifluorophenyl)pyridin-2(1H)-one] | < 50 | > 50 | > 50 | < 50 | > 50 | > 50 | > 50 |
| CCn1c(-c2c(F)cc(F)cc2F)c(-n2cc(Cl)cn2)ccc1=O [compound 27, 5-(4-chloro-1H-pyrazol-1-yl)-1-ethyl-6-(2,4,6-trifluorophenyl)-pyridin-2(1H)-one] | < 50 | > 50 | < 50 | < 50 | > 50 | > 50 | > 50 |
| CCn1c(-c2c(F)cc(F)cc2F)c(-n2cncn2)cc(Cl)c1=O [compound 34, 3-chloro-1-ethyl-5-(1H-1,2,4-triazol-1-yl)-6-(2,4,6-trifluorophenyl)pyridin-2(1H)-one] | < 50 | > 50 | > 50 | < 50 | > 50 | > 50 | > 50 |
| CCn1c(-c2c(F)cc(F)cc2F)c(-n2ncnc2Br)cc(Cl)c1=O [compound 35, 5-(5-bromo-1H-1,2,4-triazol-1-yl)-3-chloro-1-ethyl-6-(2,4,6-trifluorophenyl)pyridin-2(1H)-one] | < 50 | > 50 | > 50 | < 50 | > 50 | > 50 | > 50 |
| CCn1c(-c2c(F)cc(F)cc2F)c(-c2cnco2)cc(Cl)c1=O [compound 36, 3-chloro-1-ethyl-5-(oxazol-5-yl)-6-(2,4,6-trifluorophenyl)pyridin-2(1H)-one] | < 50 | < 50 | > 50 | < 50 | > 50 | > 50 | < 50 |
| CCn1c(-c2c(F)cc(F)cc2F)c(-n2cc(Cl)cn2)cc(Cl)c1=O [compound 40, 3-chloro-5-(4-chloro-1H-pyrazol-1-yl)-1-ethyl-6-(2,4,6-trifluoro-phenyl)pyridin-2(1H)-one] | < 50 | > 50 | > 50 | < 50 | > 50 | > 50 | > 50 |
| CCn1c(-c2c(F)cc(OC)cc2F)c(-n2cc(Cl)cn2)cc(Cl)c1=O [compound 41, 3-chloro-5-(4-chloro-1H-pyrazol-1-yl)-6-(2,6-difluoro-4-methoxyphenyl)-1-ethylpyridin-2(1H)-one] | < 50 | > 50 | > 50 | < 50 | > 50 | > 50 | > 50 |
| CCn1c(-c2c(F)cccc2F)c(-c2ocnc2C)cc(Cl)c1=O [compound 43, 3-chloro-6-(2,6-difluorophenyl)-1-ethyl-5-(4-methyloxazol-5-yl)pyridin-2(1H)-one] | < 50 | > 50 | > 50 | < 50 | > 50 | > 50 | > 50 |
| CCn1c(-c2c(F)cc(F)cc2F)c(-n2cc(Br)cn2)cc(Cl)c1=O [compound 70, 5-(4-bromo-1H-pyrazol-1-yl)-3-chloro-1-ethyl-6-(2,4,6-trifluorophenyl)pyridin-2(1H)-one] | < 50 | > 50 | > 50 | < 50 | > 50 | > 50 | > 50 |
